Where two headings read alike, the source gives them in different places.
System: patients with advanced metastatic cancer
From the text: In this phase 1 study, dose escalation was followed by expansion cohorts of once-daily, oral M2698 in continuous 21-day cycles. Primary objectives were to determine the maximum tolerated dose (MTD), dose-limiting toxicities (DLTs), and recommended phase 2 dose (RP2D). Secondary objectives were to assess safety and tolerability, pharmacokinetics (PK, including food effect) and antitumor activity. Pharmacodynamic biomarker assessments were exploratory. Treatment was discontinued if there was disease progression, toxicity or consent withdrawal.
In Part 1, M2698 monotherapy was investigated in a dose escalation with a food effect cohort. In Part 2, M2698 was investigated as monotherapy (expansion cohort) to further characterize safety, tolerability and pharmacokinetics, and assess antitumor activity in PAM + patients without confounding markers (exploratory).
Dose escalation analysis included all patients who experienced a DLT and those who received ≥ 80% of planned M2698 doses in cycle 1 without experiencing a DLT. Safety analysis included all patients who received ≥ 1 dose of M2698. PK analysis included all patients who received ≥ 1 dose of M2698 and had measurable plasma concentrations. Dose proportionality was tested using the power model (linear regression approach on the log -transformed scale).

## NC(=O)c1cccc2c(N[C@H](CN3CCC3)c3ccc(Cl)c(C(F)(F)F)c3)ncnc12 [M2698]
75 mg n=4
  M2698-related TEAE: Ataxia: 0
  M2698-related TEAE: Blood and lymphatic system disorders: 0
  M2698-related TEAE: Blood creatine phosphokinase increased: 1
  M2698-related TEAE: Blood creatinine increased: 0
  M2698-related TEAE: Cardiac disorders: 0
  M2698-related TEAE: Cognitive disorder: 0
  M2698-related TEAE: Constipation: 0
  M2698-related TEAE: Decreased appetite: 0
  M2698-related TEAE: Delusion: 0
  M2698-related TEAE: Depression: 0
  M2698-related TEAE: Diarrhoea: 0
  M2698-related TEAE: Diarrhoea haemorrhagic: 0
  M2698-related TEAE: Dizziness: 0
  M2698-related TEAE: Dry eye: 0
  M2698-related TEAE: Dry mouth: 0
  M2698-related TEAE: Dysgeusia: 1
  M2698-related TEAE: Dyspepsia: 0
  M2698-related TEAE: Dysphagia: 0
  M2698-related TEAE: Energy increased: 0
  M2698-related TEAE: Erythema: 0
  M2698-related TEAE: Euphoric mood: 0
  M2698-related TEAE: Eye disorders: 0
  M2698-related TEAE: Fatigue: 0
  M2698-related TEAE: Gamma-glutamyltransferase increased: 0
  M2698-related TEAE: Gastrointestinal disorders: 0
  M2698-related TEAE: Gastrooesophageal reflux disease: 0
  M2698-related TEAE: General disorders and administration site conditions: 0
  M2698-related TEAE: Headache: 0
  M2698-related TEAE: Hyperhidrosis: 0
  M2698-related TEAE: Hypokalaemia: 0
  M2698-related TEAE: Hypomagnesaemia: 0
  M2698-related TEAE: Insomnia: 0
  M2698-related TEAE: Investigations: 1
  M2698-related TEAE: Lipase increased: 0
  M2698-related TEAE: Lymphopenia: 0
  M2698-related TEAE: Metabolism and nutrition disorders: 0
  M2698-related TEAE: Mucosal inflammation: 0
  M2698-related TEAE: Nausea: 0
  M2698-related TEAE: Nervous system disorders: 1
  M2698-related TEAE: Nightmare: 1
  M2698-related TEAE: Onychomadesis: 0
  M2698-related TEAE: Paranoia: 0
  M2698-related TEAE: Photosensitivity reaction: 0
  M2698-related TEAE: Posterior reversible encephalopathy syndrome: 0
  M2698-related TEAE: Pruritus generalised: 0
  M2698-related TEAE: Psychiatric disorders: 1
  M2698-related TEAE: Rash: 0
  M2698-related TEAE: Rash maculo-papular: 1
  M2698-related TEAE: Skin and subcutaneous tissue disorders: 1
  M2698-related TEAE: Subjects with at least one event: 2
  M2698-related TEAE: Transaminases increased: 0
  M2698-related TEAE: Tremor: 0
  M2698-related TEAE: Vision blurred: 0
  M2698-related TEAE: Vomiting: 0
  M2698-related TEAE: White blood cell count decreased: 0
110 mg n=4
  M2698-related TEAE: Abnormal dreams: 0
  M2698-related TEAE: Affect lability: 0
  M2698-related TEAE: Alanine aminotransferase increased: 0
  M2698-related TEAE: Amylase increased: 0
  M2698-related TEAE: Anaemia: 0
  M2698-related TEAE: Angina pectoris: 0
  M2698-related TEAE: Anxiety: 0
  M2698-related TEAE: Aphasia: 0
  M2698-related TEAE: Ataxia: 0
  M2698-related TEAE: Blood and lymphatic system disorders: 0
  M2698-related TEAE: Blood creatine phosphokinase increased: 0
  M2698-related TEAE: Blood creatinine increased: 0
  M2698-related TEAE: Cardiac disorders: 0
  M2698-related TEAE: Cognitive disorder: 0
  M2698-related TEAE: Constipation: 1
  M2698-related TEAE: Decreased appetite: 0
  M2698-related TEAE: Delusion: 0
  M2698-related TEAE: Depression: 0
  M2698-related TEAE: Diarrhoea: 0
  M2698-related TEAE: Diarrhoea haemorrhagic: 0
  M2698-related TEAE: Dizziness: 0
  M2698-related TEAE: Dry eye: 0
  M2698-related TEAE: Dry mouth: 0
  M2698-related TEAE: Dysgeusia: 0
  M2698-related TEAE: Dyspepsia: 0
  M2698-related TEAE: Dysphagia: 0
  M2698-related TEAE: Energy increased: 0
  M2698-related TEAE: Erythema: 0
  M2698-related TEAE: Euphoric mood: 0
  M2698-related TEAE: Eye disorders: 0
  M2698-related TEAE: Fatigue: 0
  M2698-related TEAE: Gamma-glutamyltransferase increased: 0
  M2698-related TEAE: Gastrointestinal disorders: 1
  M2698-related TEAE: Gastrooesophageal reflux disease: 0
  M2698-related TEAE: General disorders and administration site conditions: 0
  M2698-related TEAE: Headache: 0
  M2698-related TEAE: Hyperhidrosis: 0
  M2698-related TEAE: Hypokalaemia: 0
  M2698-related TEAE: Hypomagnesaemia: 0
  M2698-related TEAE: Insomnia: 0
  M2698-related TEAE: Investigations: 0
  M2698-related TEAE: Lipase increased: 0
  M2698-related TEAE: Lymphopenia: 0
  M2698-related TEAE: Metabolism and nutrition disorders: 0
  M2698-related TEAE: Mucosal inflammation: 0
  M2698-related TEAE: Nausea: 1
  M2698-related TEAE: Nervous system disorders: 0
  M2698-related TEAE: Nightmare: 0
  M2698-related TEAE: Onychomadesis: 0
  M2698-related TEAE: Paranoia: 0
  M2698-related TEAE: Photosensitivity reaction: 0
  M2698-related TEAE: Posterior reversible encephalopathy syndrome: 0
  M2698-related TEAE: Pruritus generalised: 0
  M2698-related TEAE: Psychiatric disorders: 0
  M2698-related TEAE: Rash: 0
  M2698-related TEAE: Rash maculo-papular: 0
  M2698-related TEAE: Skin and subcutaneous tissue disorders: 0
  M2698-related TEAE: Subjects with at least one event: 1
  M2698-related TEAE: Transaminases increased: 0
  M2698-related TEAE: Tremor: 0
  M2698-related TEAE: Vision blurred: 0
  M2698-related TEAE: Vomiting: 0
  M2698-related TEAE: White blood cell count decreased: 0
160 mg n=6
  M2698-related TEAE: Abnormal dreams: 1
  M2698-related TEAE: Affect lability: 0
  M2698-related TEAE: Alanine aminotransferase increased: 0
  M2698-related TEAE: Amylase increased: 0
  M2698-related TEAE: Anaemia: 0
  M2698-related TEAE: Angina pectoris: 0
  M2698-related TEAE: Anxiety: 0
  M2698-related TEAE: Aphasia: 0
  M2698-related TEAE: Ataxia: 0
  M2698-related TEAE: Blood and lymphatic system disorders: 1
  M2698-related TEAE: Blood creatine phosphokinase increased: 0
  M2698-related TEAE: Blood creatinine increased: 0
  M2698-related TEAE: Cardiac disorders: 0
  M2698-related TEAE: Cognitive disorder: 0
  M2698-related TEAE: Constipation: 0
  M2698-related TEAE: Decreased appetite: 0
  M2698-related TEAE: Delusion: 0
  M2698-related TEAE: Depression: 0
  M2698-related TEAE: Diarrhoea: 0
  M2698-related TEAE: Diarrhoea haemorrhagic: 0
  M2698-related TEAE: Dizziness: 0
  M2698-related TEAE: Dry eye: 1
  M2698-related TEAE: Dry mouth: 1
  M2698-related TEAE: Dysgeusia: 1
  M2698-related TEAE: Dyspepsia: 0
  M2698-related TEAE: Dysphagia: 1
  M2698-related TEAE: Energy increased: 1
  M2698-related TEAE: Erythema: 1
  M2698-related TEAE: Euphoric mood: 1
  M2698-related TEAE: Eye disorders: 1
  M2698-related TEAE: Fatigue: 0
  M2698-related TEAE: Gamma-glutamyltransferase increased: 1
  M2698-related TEAE: Gastrointestinal disorders: 1
  M2698-related TEAE: Gastrooesophageal reflux disease: 0
  M2698-related TEAE: General disorders and administration site conditions: 1
  M2698-related TEAE: Headache: 0
  M2698-related TEAE: Hyperhidrosis: 0
  M2698-related TEAE: Hypokalaemia: 0
  M2698-related TEAE: Hypomagnesaemia: 0
  M2698-related TEAE: Insomnia: 1
  M2698-related TEAE: Investigations: 3
  M2698-related TEAE: Lipase increased: 0
  M2698-related TEAE: Lymphopenia: 1
  M2698-related TEAE: Metabolism and nutrition disorders: 0
  M2698-related TEAE: Mucosal inflammation: 0
  M2698-related TEAE: Nausea: 0
  M2698-related TEAE: Nervous system disorders: 1
  M2698-related TEAE: Nightmare: 0
  M2698-related TEAE: Onychomadesis: 0
  M2698-related TEAE: Paranoia: 0
  M2698-related TEAE: Photosensitivity reaction: 0
  M2698-related TEAE: Posterior reversible encephalopathy syndrome: 0
  M2698-related TEAE: Pruritus generalised: 0
  M2698-related TEAE: Psychiatric disorders: 2
  M2698-related TEAE: Rash: 1
  M2698-related TEAE: Rash maculo-papular: 0
  M2698-related TEAE: Skin and subcutaneous tissue disorders: 2
  M2698-related TEAE: Subjects with at least one event: 4
  M2698-related TEAE: Transaminases increased: 1
  M2698-related TEAE: Tremor: 0
  M2698-related TEAE: Vision blurred: 0
  M2698-related TEAE: Vomiting: 0
  M2698-related TEAE: White blood cell count decreased: 1
160 mg, n = 1
  DLT observed: grade 3 increase in gamma-glutamyltransferase
200 mg n=3
  M2698-related TEAE: Abnormal dreams: 0
  M2698-related TEAE: Affect lability: 0
  M2698-related TEAE: Alanine aminotransferase increased: 0
  M2698-related TEAE: Amylase increased: 0
  M2698-related TEAE: Anaemia: 1
  M2698-related TEAE: Angina pectoris: 0
  M2698-related TEAE: Anxiety: 0
  M2698-related TEAE: Aphasia: 0
  M2698-related TEAE: Ataxia: 0
  M2698-related TEAE: Blood and lymphatic system disorders: 1
  M2698-related TEAE: Blood creatine phosphokinase increased: 0
  M2698-related TEAE: Blood creatinine increased: 0
  M2698-related TEAE: Cardiac disorders: 0
  M2698-related TEAE: Cognitive disorder: 0
  M2698-related TEAE: Constipation: 0
  M2698-related TEAE: Decreased appetite: 1
